# “Also recorded” adds a separate entry of the source.
# System: TH1-mediated passive EAE
# Test: Passive EAE induced by TH1 cells
# Assay type: in vivo, mice
# Conditions: polarized DLN cells transferred into naïve recipients, listed as SB
# Description: FIG. 5A is a schematic that illustrates that protocol of inducing passive EAE.
# Based on this and the observation that IL-17 is not absolutely required for EAE progression (Haak, S et al., 2009, J Clin Invest 119:61-69), it is possible that SB prevents EAE by inhibiting production of additional key pathogenic factors. Further, it is shown that TH1-mediated passive EAE is prevented by inhibition of p38 MAPK (FIG. 5). In these experiments, donor animals were immunized with MOG35-55, DLN cells were isolated at D10 and cultured under polarizing conditions, and cells were transferred into naïve recipients. […] As such, complementary genomic and proteomic approaches were used to identify these factors, which in the future may provide novel druggable targets for treatment of autoimmune disease. Because such approaches typically yield a large number of potential candidates, a prioritizing/“funneling” scheme was constructed to rule out irrelevant hits in screens. In particular, the sexual dimorphism in response to SB serves as a useful discriminatory tool in this regard.
smiles,measurement,value
C[S+]([O-])c1ccc(-c2nc(-c3ccncc3)c(-c3ccc(F)cc3)[nH]2)cc1 (centres unmarked) [SB203580],Cytokine production / inflammatory response,decreased cytokine production; also recorded: reduces the inflammatory response
same,EAE severity,reduces EAE severity; also recorded: prevents passive EAE induced by TH1 cells

# — patent US20140127231A1, “p38 MAPK Pathway Inhibitors as Female-Specific Therapeutics” (UNIVERSITY OF VERMONT, priority 2012, published 2014)
